Reference: patent US11814364B2, “Pyridine N-oxide derivatives useful as factor XIa inhibitors” (Janssen Pharmaceutica NV, priority 2021, dated 2023)

Target: human plasma kallikrein (Homo sapiens, UniProt P03952)
Experiment: Kallikrein inhibition FLINT assay with quenched AMC peptide substrate Z-Gly-Pro-Arg-AMC (end point EP or kinetic KIN reads)
Type: biochemical
Conditions: kinetic reads at 5 min intervals over 30 min; read-out: Kallikrein (KIN) IC50
Method in brief: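 Enzyme and compound were preincubated 30 min before adding 50 μM AMC substrate in pH 7.5 Tris/NaCl/CaCl2/BSA/CHAPS buffer. AMC release was read at 30 min endpoint or every 5 min.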

Sequence of human plasma kallikrein (P03952 391-638 limits assumed): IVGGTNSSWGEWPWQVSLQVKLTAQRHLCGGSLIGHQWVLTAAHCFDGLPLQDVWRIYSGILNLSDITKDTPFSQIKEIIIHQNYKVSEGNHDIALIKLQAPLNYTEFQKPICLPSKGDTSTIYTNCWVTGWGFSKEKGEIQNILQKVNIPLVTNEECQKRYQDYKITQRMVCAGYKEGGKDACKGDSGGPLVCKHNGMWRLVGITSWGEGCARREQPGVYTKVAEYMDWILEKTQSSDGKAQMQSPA
Sequence of human plasma kallikrein (P03952 20-390 partner limits assumed): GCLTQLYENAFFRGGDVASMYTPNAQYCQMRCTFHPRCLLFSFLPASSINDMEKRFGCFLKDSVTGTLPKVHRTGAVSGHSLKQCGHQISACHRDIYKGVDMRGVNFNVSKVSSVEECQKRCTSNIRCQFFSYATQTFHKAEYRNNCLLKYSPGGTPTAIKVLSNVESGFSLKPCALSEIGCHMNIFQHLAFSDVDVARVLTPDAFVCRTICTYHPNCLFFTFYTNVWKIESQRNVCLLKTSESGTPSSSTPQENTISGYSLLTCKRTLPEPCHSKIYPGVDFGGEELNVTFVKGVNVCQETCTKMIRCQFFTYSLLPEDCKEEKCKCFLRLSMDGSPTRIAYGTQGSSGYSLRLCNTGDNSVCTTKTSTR

| SMILES | IC50 |
| --- | --- |
| [O-][n+]1cc(-c2c(-n3cnnn3)ccc(Cl)c2F)ccc1C(CCOC(F)F)n1cc(-c2c(Cl)ncn2C(F)F)cn1 (single isomer, unassigned) [Example P843] | ~71 nM |
| NC(=O)c1ccc(-c2cnn(C(CC3CC3C(=O)N3CCCCC3)c3ccc(-c4c(C(F)F)ccc(Cl)c4F)c[n+]3[O-])c2)cc1 (stereo not drawn) [Example Q37] | 99.1 nM |
| [O-][n+]1cc(-c2c(-n3cnnn3)ccc(Cl)c2F)ccc1C(Cn1cc(F)cn1)n1cc(-c2ccnc(C3CC3)c2)cn1 (stereo not drawn) [Example P500] | 3.7 nM |
| [O-][n+]1ccc(-c2cnn(C(Cc3ccc(F)cc3)c3ccc(-c4c(C(F)F)ccc(Cl)c4F)c[n+]3[O-])c2)cc1 (single isomer, unassigned) [Example Q18] | 5.1 nM |
| CCC(c1ccc(-c2c(-n3cc(C(F)(F)F)nn3)ccc(Cl)c2F)c[n+]1[O-])n1cc(-c2ccc(C(N)=O)c(F)c2)cn1 (single isomer, unassigned) [Example P883] | 103 nM |
| NC(=O)c1ccc(-c2cnn(C(Cc3ccn(C(F)F)n3)c3ccc(-c4c(-n5cc(Cl)nn5)ccc(Cl)c4F)c[n+]3[O-])c2)cc1F (single isomer, unassigned) [Example P893] | 20.5 nM |
| COCC[C@H](c1ccc(-c2c(-n3cc(OC(F)F)nn3)ccc(Cl)c2F)c[n+]1[O-])n1cc(-c2cnnn2C)cn1 [Example P616] | 205 nM |
| Nc1ccc(-c2cnn(C(Cn3cc(F)cn3)c3ccc(-c4c(-n5cnnn5)ccc(Cl)c4F)c[n+]3[O-])c2)c(F)n1 (stereo not drawn) [Example P281] | 2.6 nM |
| Cc1nnc(CC(c2ccc(-c3c(-n4cc(C(F)(F)F)nn4)ccc(Cl)c3F)c[n+]2[O-])n2cc(-c3ccc(C(N)=O)c(F)c3)cn2)o1 (stereo not drawn) [Example P927] | 7.6 nM |
| [O-][n+]1cc(-c2c(-n3cnnn3)ccc(Cl)c2F)ccc1C(Cn1cccn1)n1cc(-c2ccnc(C(F)(F)F)c2)cn1 (single isomer, unassigned) [Example P513] | 5.3 nM |
| [O-][n+]1cc(-c2cc(Cl)ccc2-n2cnnn2)ccc1C(Cn1cc2c(n1)COCC2)n1cc(-c2ccnc(C(F)(F)F)c2)cn1 (stereo not drawn) [Example P388] | 126 nM |
| [O-][n+]1cc(-c2c(-n3cnnn3)ccc(Cl)c2F)ccc1C(Cn1cc(-c2ccccn2)cn1)n1cc(-c2ccccn2)cn1 (single isomer, unassigned) [Example P516] | 139 nM |
| Cc1ncn(-c2cnn([C@H](CCOC(F)F)c3ccc(-c4c(-n5cc(C(F)(F)F)nn5)ccc(Cl)c4F)c[n+]3[O-])c2)n1 [Example P823] | 566 nM |
| CC(C)Oc1cc(C(CC2CC2)n2cc(-c3cnn(C)c(=O)c3)cn2)[n+]([O-])cc1-c1c(-n2cnnn2)ccc(Cl)c1F (stereo not drawn) [Example P146] | 571 nM |
| NC(=O)c1ccc(-c2cnn(C(Cc3ccn(C(F)F)n3)c3ccc(-c4c(C(F)F)ccc(Cl)c4F)c[n+]3[O-])c2)cc1 (single isomer, unassigned) [Example Q69] | 0.8 nM |
| CC1CC1C[C@@H](c1ccc(-c2c(-n3cnnn3)ccc(Cl)c2F)c[n+]1[O-])n1cc(-c2c(F)nnn2C)cn1 (stereo partly drawn) [Example P769] | > 100 nM |

| SMILES | IC50 |
| --- | --- |
| NC(=O)c1ccc(-c2cnn(C(Cc3ccn(C(F)F)n3)c3ccc(-c4c(C(F)F)ccc(Cl)c4F)c[n+]3[O-])c2)cc1 (single isomer, unassigned) [Example Q68] | 111 nM |
| [O-][n+]1cc(-c2c(-n3cnnn3)ccc(Cl)c2F)ccc1C(Cn1cc2c(n1)COCC2)n1cc(-c2ccnc(C(F)(F)F)c2)cn1 (stereo not drawn) [Example P465] | 76.5 nM |
| Cn1cc(CC(c2ccc(-c3c(C(F)F)ccc(Cl)c3F)c[n+]2[O-])n2cc(-c3cnnn3C)cn2)cn1 (single isomer, unassigned) [Example Q42] | 44.3 nM |
| CCC(c1cc(OC)c(-c2cc(Cl)ccc2-n2cc(C(F)(F)F)nn2)c[n+]1[O-])n1cc(-c2ccc(C(N)=O)c(F)c2)cn1 (single isomer, unassigned) [Example P877] | 220 nM |
| [O-][n+]1cc(-c2c(-n3cnnn3)ccc(Cl)c2F)ccc1C(Cc1nn(CC(F)(F)F)cc1F)n1cc(-c2ccnc(C(F)(F)F)c2)cn1 (stereo not drawn) [Example P741] | 22.1 nM |
| [O-][n+]1cc(-c2c(-n3cnnn3)ccc(Cl)c2F)ccc1[C@H](Cn1ccc(OC(F)F)n1)n1cc(-c2ccnc(C(F)(F)F)c2)cn1 [Example P534] | 93.1 nM |
| COc1cc(C(Cc2ccn(C(F)F)n2)n2cc(-c3ccc(C(N)=O)c(F)c3)cn2)[n+]([O-])cc1-c1cc(Cl)ccc1C(C)=O (single isomer, unassigned) [Example Q78] | 510 nM |
| CC1CC1CC(c1ccc(-c2c(-n3cnnn3)ccc(Cl)c2F)c[n+]1[O-])n1cc(-c2ncnn2C(F)F)cn1 (stereo not drawn) [Example P767] | > 100 nM |
| O=C(C1CC1CC(c1ccc(-c2c(-n3cnnn3)ccc(Cl)c2F)c[n+]1[O-])n1cc(-c2ccncc2)cn1)N1CCCCC1 (stereo not drawn) [Example P252] | 617 nM |
| Cn1ncnc1-c1cnn([C@H](CCOC(F)F)c2ccc(-c3c(-n4cc(C5CC5)nn4)ccc(Cl)c3F)c[n+]2[O-])c1 [Example P781] | 203 nM |
| [O-][n+]1cc(-c2c(-n3cnnn3)ccc(Cl)c2F)ccc1C(Cc1ccc(F)cc1)n1cc(-c2cnn(C(F)F)n2)cn1 (single isomer, unassigned) [Example P598] | 862 nM |
| O=C(c1cnn(CC(c2ccc(-c3c(-n4cnnn4)ccc(Cl)c3F)c[n+]2[O-])n2cc(-c3ccncc3)cn2)c1)N1CCCCC1 (stereo not drawn) [Example P291] | 12.5 nM |
| COc1cc(C(CC2CC2)n2cc(-c3ncnn3C)cn2)[n+]([O-])cc1-c1cc(Cl)ccc1C#N (single isomer, unassigned) [Example Q61] | 281 nM |
| [O-][n+]1cc(-c2c(C(F)F)ccc(Cl)c2F)ccc1C(CCOC(F)F)n1cc(-c2ccnc(C(F)(F)F)n2)cn1 (stereo not drawn) [Example Q29] | 259 nM |
| [O-][n+]1cc(-c2c(-n3cnnn3)ccc(Cl)c2F)ccc1C(CCOC(F)F)n1cc(-c2cn(C(F)F)nn2)cn1 (single isomer, unassigned) [Example P659] | 170 nM |

More lines, now with the values ahead:

| IC50 | SMILES |
| --- | --- |
| 767 nM | Cc1nc(N)ccc1-c1cnn(C(CCOC(F)F)c2ccc(-c3c(-n4cnnn4)ccc(Cl)c3F)c[n+]2[O-])c1 (single isomer, unassigned) [Example P343] |
| ~138 nM | O=C(O)c1ccn(CC(c2ccc(-c3c(-n4cnnn4)ccc(Cl)c3F)c[n+]2[O-])n2cc(-c3ccncc3)cn2)n1 (stereo not drawn) [Example P442] |
| 5.3 nM | COc1ccc(CC(c2ccc(-c3cc(Cl)ccc3-n3cnnn3)c[n+]2[O-])n2cc(-c3ccc(C(=O)O)cc3)cn2)cc1 (stereo not drawn) [Example P64] |
| 105 nM | N#Cc1cc(-c2cnn(C(Cn3ccccc3=O)c3ccc(-c4c(-n5cnnn5)ccc(Cl)c4F)c[n+]3[O-])c2)ccn1 (stereo not drawn) [Example P459] |
| 31.8 nM | [O-][n+]1cc(-c2c(-n3cnnn3)ccc(Cl)c2F)ccc1C(CC1CC1)n1cc(-c2ccncc2)cn1 (single isomer, unassigned) [Example P262] |
| 417 nM | [2H]C([2H])(C[C@@H](c1ccc(-c2c(-n3cnnn3)ccc(Cl)c2F)c[n+]1[O-])n1cc(-c2cn(C)nc2Cl)cn1)OC(F)F [Example P849] |
| 47.9 nM | Cn1cc2cc(-c3cnn(C(CC4CC4)c4ccc(-c5c(-n6cnnn6)ccc(Cl)c5F)c[n+]4[O-])c3)ccc2n1 (stereo not drawn) [Example P326] |
| 189 nM | COC(=O)Nc1ccc(-c2cnn(C(CC3CC3C(=O)N3CCCC(c4ccccc4)C3)c3ccc(-c4c(-n5cnnn5)ccc(Cl)c4F)c[n+]3[O-])c2)cc1 (stereo not drawn) [Example P222] |
| 55.6 nM | CC(C)C(=O)N(C)CC(c1ccc(-c2c(-n3cnnn3)ccc(Cl)c2F)c[n+]1[O-])n1cc(-c2ccnc(F)c2)cn1 (stereo not drawn) [Example P418] |
| 6.9 nM | [O-][n+]1cc(-c2c(-n3cnnn3)ccc(Cl)c2F)ccc1C(CC1CC1)n1cc(-c2c[nH]nc2Cl)cn1 (stereo not drawn) [Example P938] |
| 36.2 nM | O=C(NC1CC1)c1ccc(-c2cnn(C(CC3CCCCO3)c3ccc(-c4c(-n5cnnn5)ccc(Cl)c4F)c[n+]3[O-])c2)cc1 (single isomer, unassigned) [Example P77] |
| 86.7 nM | CCCC(c1ccc(-c2c(-n3cnnn3)ccc(Cl)c2F)c[n+]1[O-])n1cc(-c2ccc(NC(=O)OC)cc2)cn1 (stereo not drawn) [Example P156] |
| 87.2 nM | COC(=O)Nc1ccc(-c2cnn(C(CCO)c3ccc(-c4c(-n5cnnn5)ccc(Cl)c4F)c[n+]3[O-])c2)cc1 (single isomer, unassigned) [Example P218] |
| 0.2 nM | NC(=O)c1ccc(-c2cnn(C(CCOC(F)F)c3ccc(-c4c(-n5cc(Cl)nn5)ccc(Cl)c4F)c[n+]3[O-])c2)cc1 (single isomer, unassigned) [Example P896] |
| 2.8 nM | COCc1ccn(CC(c2ccc(-c3c(-n4cnnn4)ccc(Cl)c3F)c[n+]2[O-])n2cc(-c3ccc(N)nc3F)cn2)n1 (stereo not drawn) [Example P492] |
| 45.7 nM | COC(=O)Nc1ccc(-c2cnn(C(CC3CCC3)c3ccc(-c4c(-n5cnnn5)ccc(Cl)c4F)c[n+]3[O-])c2)cc1 (stereo not drawn) [Example P109] |
| 56 nM | CNc1ncc(-c2cnn([C@H](CCOC(F)F)c3ccc(-c4c(-n5cnnn5)ccc(Cl)c4F)c[n+]3[O-])c2)cn1 [Example P552] |
| 38.8 nM | CN(CC(c1ccc(-c2c(-n3cnnn3)ccc(Cl)c2F)c[n+]1[O-])n1cc(-c2ccnc(F)c2)cn1)C(=O)OC(C)(C)C (single isomer, unassigned) [Example P354] |
| 174 nM | COCC[C@H](c1ccc(-c2c(-n3cnnn3)ccc(Cl)c2F)c[n+]1[O-])n1cc(-c2cnc(C(F)F)s2)cn1 [Example P531] |
| 197 nM | O=C(C1CC1CC(c1ccc(-c2c(-n3cnnn3)ccc(Cl)c2F)c[n+]1[O-])n1cc(-c2ccncc2)cn1)N1CCCC1 (stereo not drawn) [Example P266] |
| 43.9 nM | CN(CC(c1ccc(-c2c(-n3cnnn3)ccc(Cl)c2F)c[n+]1[O-])n1cc(-c2ccnc(C(F)(F)F)c2)cn1)C(=O)c1ccccc1 (single isomer, unassigned) [Example P423] |
| 933 nM | COC(=O)N(C)CC(c1ccc(-c2c(-n3cnnn3)ccc(Cl)c2F)c[n+]1[O-])n1cc(-c2ccnc(F)c2)cn1 (single isomer, unassigned) [Example P355] |
| 72.8 nM | COCCOC(=O)Nc1ccc(-c2cnn(C(CC3CC3)c3ccc(-c4c(-n5cnnn5)ccc(Cl)c4F)c[n+]3[O-])c2)cc1 (stereo not drawn) [Example P141] |
